Data set [1] has as its target PI-3 kinase γ (Homo sapiens, UniProt P48736). Briefly: PI3Kγ inhibitory activity (Ki value), HTRF. It counts as biochemical. To be noted: Ki=IC50/(1+10 μM ATP/Km). The procedure, abridged:
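IC50 was measured by HTRF over 50-0.05 μmol/L compound and fitted by logistic approximation or two-point linear regression. ATP Km came from Lineweaver-Burk plots of HTRF signal at 0.625-80 μmol/L ATP. Ki = IC50/(1+10 μM/Km).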

The test system of data set [2] is Salmonella typhimurium TA98 line, TA100 line. Briefly: FAT test (mutagenicity). Further details: key: When the mutagenicity is negative, the compound is shown as (−); When positive, the compound is shown as (+). To be noted: TA98 and TA100 lines; non-metabolism-activation and metabolism-activation conditions. As to the method:
20 μL of Salmonella enterica subsp. typhimurium (Salmonella typhimurium TA98 line, TA100 line) cryopreserved was inoculated to 10 mL of liquid nutrient medium (2.5% Oxoid nutrient broth No. 2) and then precultured at 37° C. for 10 hours with shaking. Regarding TA98 line, after 9 mL of a bacterial suspension was centrifuged (2000×g, 10 minutes) to remove the culture solution, the bacteria was suspended in 9 mL of Micro F buffer solution (K2HPO4: 3.5 g/L, KH2PO4: 1 g/L, (NH4)2SO4: 1 g/L, tri-sodium citric acid dihydrate: 0.25 g/L, MgSO4.7H2O: 0.1 g/L), and then added to 110 mL of Exposure media (Micro F buffer solution containing biotin: 8 μg/mL, histidine: 0.2 μg/mL, glucose: 8 mg/mL). Regarding TA 100 line, 120 mL of Exposure media was added to 3.16 mL of the bacterial suspension to prepare a test bacterial suspension. 12 μL of a solution of a test substance in DMSO (diluted eight times in a common ratio of 2 from the maximum dose of 50 mg/mL); 12 μL of DMSO as a negative control; 50 μg/mL 4-nitroquinoline-1-oxide solution in DMSO for TA98 line or 0.25 μg/mL 2-(2-furyl)-3-(5-nitro-2-furyl)acrylamide solution in DMSO as a positive control for TA 100 line in the case of a non-metabolism-activation condition; 12 μL of 40 μg/mL 2-aminoanthracene solution in DMSO for TA98 line or 20 μg/mL of 2-aminoanthracene solution in DMSO for TA100 line in the case of a metabolism-activation condition; were each mixed with 588 μL of the test bacterial suspension (in the case of a metabolism activation condition, a mixed solution of 498 μL of the test bacterial suspension and 90 μL S9 mix) and then cultured at 37° C. at 90 minutes with shaking. 460 μL of the bacterial suspension to which a test substance was exposed was mixed with 230 μL of Indicator media (a Micro F buffer solution containing 8 μg/mL biotin, 0.2 μg/mL histidine, 8 mg/mL glucose, and 37.5 μg/mL bromocresol purple). 50 μL thereof was dispensed to microplate 48 wells/dose and then statically cultured at 37° C. for 3 days. In a well containing bacteria which obtained proliferation potency by mutation of the amino acid (histidine) synthetase gene, the change of pH caused the color change from purple to yellow. Thus, in 48 wells per dose, the number of the bacteria-proliferation wells in which the color changed to yellow was counted, compared with a group of negative controls, and then evaluated. When the mutagenicity is negative, the compound is shown as (−). When positive, the compound is shown as (+).

Data set [3] has as its system AKT phosphorylation in human monocyte-like cell line THP-1. The experiment in a line: AKT phosphorylation inhibitory activity in MCP-1-stimulated THP-1 cells (ELISA). Type of data set: cell-based. Particulars: 1 μmol/L solution of each compound, MCP-1 stimulation, read-out: AKT phosphorylation inhibition ratio. As to the method: (1) The AKT phosphorylation inhibitory activity of a compound was evaluated according to the following procedure. (2) Human monocyte-like cell line THP-1 was washed with RPMI-1640 media, incubated in the presence of 5% CO2 at 37° C. for 3 hours, washed with Hank's balanced salt solution (HBSS), adjusted to a cell concentration of 6.6×10^6/mL, and then used in an experiment. (3) 30 μL of the cell suspension and 60 μL of each compound solution containing 0.2% DMSO/HBSS were mixed and then preincubated at 37° C. for 5 minutes. 30 μL of HBSS containing 4 μg/mL of MCP-1 was added thereto and then incubated for 30 seconds at 37° C. (4) 30 μl of a cell lysate (20 mmol/L Tris-HCl (pH 7.5), 150 mmol/L NaCl, 1 mmol/L Na2EDTA, 1 mmol/L EGTA, 1% Triton, 2.5 mmol/L sodium pyrophosphate, 1 mmol/L β-glycerophosphate, 1 mmol/L Na3VO4, 1 μg/ml leupeptin, 50 nmol/L APMSF) was added thereto to lyse cells. (5) The amount of AKT phosphorylation in the cell lysate was measured by ELISA method. (6) Anti-phospho-Akt (Ser473) antibodies (clone 193H12, derived from a rabbit) were immobilized onto the solid phase of a micro well plate. 100 μL of the prepared cell lysate was added to the micro well plate, incubated for 2 hours at 37° C., and then washed four times with Phosphate Buffered Saline containing 0.05% Tween-20. (7) An anti-AKT1 antibody (clone 2H10, derived from a mouse) was added thereto, incubated for 1 hour at 37° C., washed similarly, and then reacted with an HRP-labeled anti-mouse IgG antibody. (8) After incubating at 37° C. for 30 minutes and then washing similarly, 100 μL of TMB (3,3′,5,5″-tetramethylbenzidine) was added thereto, followed by reacting at room temperature for 30 minutes. (9) 100 μL of 1 mol/L sulfuric acid was added to quench the color reaction and then the absorbance at 450 nm was measured. (10) A series of diluted cell lysates of a positive control (a sample in the absence of a compound) were used to prepare a calibration curve, the amount of AKT phosphorylation in a sample in the absence of MCP-1 was defined as 0% activity to calculate an inhibition ratio. The measurement was performed for a 1 μmol/L solution of each compound.
A general note: ELISA stands for enzyme-linked immunosorbent assay.

By pKi is commonly meant the Ki on a negative log10 scale, so that one unit is a factor of ten.

pKi: −log10 of the molar value.

Chain of PI-3 kinase γ (P48736 whole entry): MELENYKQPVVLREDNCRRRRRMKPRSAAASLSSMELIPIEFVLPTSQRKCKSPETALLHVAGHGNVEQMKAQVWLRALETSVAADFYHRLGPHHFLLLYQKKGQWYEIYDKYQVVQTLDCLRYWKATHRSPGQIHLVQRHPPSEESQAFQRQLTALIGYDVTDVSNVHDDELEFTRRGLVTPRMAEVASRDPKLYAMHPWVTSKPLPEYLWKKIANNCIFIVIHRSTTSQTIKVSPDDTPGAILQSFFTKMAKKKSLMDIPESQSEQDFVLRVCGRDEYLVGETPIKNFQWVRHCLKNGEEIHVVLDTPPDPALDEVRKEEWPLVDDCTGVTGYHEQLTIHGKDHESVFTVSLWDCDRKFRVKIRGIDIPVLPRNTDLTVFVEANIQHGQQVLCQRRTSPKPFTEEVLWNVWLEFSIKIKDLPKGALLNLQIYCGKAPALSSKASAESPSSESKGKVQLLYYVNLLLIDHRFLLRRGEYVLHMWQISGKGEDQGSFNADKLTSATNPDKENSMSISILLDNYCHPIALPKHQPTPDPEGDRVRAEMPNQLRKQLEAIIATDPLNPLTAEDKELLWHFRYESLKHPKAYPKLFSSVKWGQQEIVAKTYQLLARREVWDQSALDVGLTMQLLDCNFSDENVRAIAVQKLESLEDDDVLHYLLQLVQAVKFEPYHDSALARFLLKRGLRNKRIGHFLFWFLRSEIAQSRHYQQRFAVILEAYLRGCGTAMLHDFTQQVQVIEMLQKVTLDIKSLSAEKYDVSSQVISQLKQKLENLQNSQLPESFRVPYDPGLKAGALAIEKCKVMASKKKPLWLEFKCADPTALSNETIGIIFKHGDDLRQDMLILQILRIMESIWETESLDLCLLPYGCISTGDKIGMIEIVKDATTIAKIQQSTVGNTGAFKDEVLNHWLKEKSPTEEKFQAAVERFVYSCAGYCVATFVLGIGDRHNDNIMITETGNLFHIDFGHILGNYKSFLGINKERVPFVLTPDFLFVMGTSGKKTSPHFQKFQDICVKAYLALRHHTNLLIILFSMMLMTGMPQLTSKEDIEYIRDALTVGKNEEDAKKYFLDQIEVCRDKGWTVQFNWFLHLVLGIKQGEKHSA

For the compound `COc1cc(N2CCc3nc(NC(=O)NCc4cc(=O)[nH]o4)sc3C2)nc(OC)n1` [Compound I-279], the pKi in data set [1] was 7.54.

For the compound `CNC(=O)Nc1nc2c(s1)CN(c1ccnc(OC)n1)CC2` [Compound I-142], in data set [2], the “mutagenicity (FAT test)” value was “(−)”.

For the compound `CNC(=O)Nc1cc2n(n1)CCN2c1ccc(S(C)(=O)=O)cc1` [Compound I-89], the “mutagenicity (FAT test)” value in data set [2] is listed as “(−)”.

Regarding `CN1CCc2cc(N3CCn4nc(NC(=O)c5cccnc5)cc43)ccc2C1=O` [Compound I-347], in data set [3], the inhibition was 80.6%.

The compound `COc1cc(N2CCc3nc(NC(=O)NCC(=O)O)sc3C2)nc(OC)n1` [Compound I-208] had a pKi in data set [1] of 7.66.

Take `CN1CCc2cc(N3CCn4nc(NC(=O)c5ccco5)cc43)ccc2C1=O` [Compound I-358]: the “mutagenicity (FAT test)” value in data set [2] was “(−)”. Further, in data set [3], the inhibition came out at 95.9%.

The values are drawn from US20110230472A1, “RING-FUSED AZOLE DERIVATIVE HAVING PI3K-INHIBITING ACTIVITY” (Shionogi & Co., Ltd., priority 2008, published 2011).
